From ChEMBL document CHEMBL1121821, “Pyrimidine acyclic nucleosides. 5-Substituted 1-[(2-aminoethoxy)methyl]uracils as candidate antivirals” (J Med Chem, 1981)
Activity calls are given as the source filed them. No cut-off for these calls is given here.

Columns and labels:
[1] = test system: Human adenovirus 5; assay: Compound was tested for antiviral activity against adenovirus type 5; little or no activity; format: functional, organism-based
[2] = test system: Human alphaherpesvirus 1; assay: Compound was tested for plaque-inhibition against HSV-1 in cell culture at 50 ug per disk; Inactive; format: functional, organism-based
[3] = test system: Vaccinia virus; assay: Compound was tested for antiviral activity against vaccinia virus; little or no activity; format: functional, organism-based; details: Orthopoxvirus vaccinia
[4] = test system: L cells; assay: Cytotoxic activity against Detroit 98 or mouse L cell culture at 10E-4 M concentration; No significant activity; format: functional, cell-based; details: L929
[5] = test system: Thymidine kinase (Human alphaherpesvirus 1); assay: Compound was tested for affinity against HSV-1 Thymidine kinase; Low activity
[6] = test system: Thymidine kinase (Human alphaherpesvirus 1); assay: Compound was tested for affinity against HSV-1 thymidine kinase; Low activity

Compound	Activity [1]	Activity [2]	Activity [3]	Cytotoxicity [4]	Activity [5]	Activity [6]
NCCOCn1cc(Cl)c(=O)[nH]c1=O	Little or no activity	inactive	Little or no activity	inactive	Low activity	–
NCCOCn1cc(Br)c(=O)[nH]c1=O	Little or no activity	inactive	Little or no activity	inactive	–	Low activity
Cc1cn(COCCN)c(=O)[nH]c1=O	Little or no activity	inactive	Little or no activity	inactive	–	Low activity
NCCOCn1cc(I)c(=O)[nH]c1=O	Little or no activity	inactive	Little or no activity	inactive	Low activity	–
NCCOCn1ccc(=O)[nH]c1=O	Little or no activity	inactive	Little or no activity	inactive	–	Low activity
